From patent US20250179057A1, “MEK IMMUNE ONCOLOGY INHIBITORS AND THERAPEUTIC USES THEREOF” (Immuneering Corporation, priority 2022, published 2025)

Assays:
[1] = Plasma stability, mouse plasma (Balb/c; Table 5 head CD-1 Mouse); type: in vitro ADME; details: balb/c plasma, 2 μM, anti-coagulant K2-EDTA; for % Remaining at T120: 120 min
Method: (§1) Individual stock solutions of propantheline and lovastatin were prepared at 10 mM in DMSO and were further diluted to 2 mM with DMSO.
(§2) Frozen matrices (Balb/c mouse, Wistar Han rat, Beagle dog, and human plasma containing K2EDTA as anti-coagulant) were thawed and centrifuged at 3100 rpm for 10 minutes at 4° C. to remove particulates. The lipid layer was then removed, and the supernatant was transferred to a new tube without disturbing the pellet. After the matrices were incubated at 37° C. for at least 10 minutes, the pH of each matrix was adjusted to pH 7.4, using 10% phosphoric acid or 1N sodium hydroxide as necessary. Test and control article stock solutions were spiked (2 μL) into matrix (1.998 mL) and mixed to final assay concentration of […]. Duplicate 30-μL aliquots of spiked plasma were transferred to matrix tubes in 96-well plate immediately after spiking for timepoints of 0, 30, 60, 120, 240, and 360 minutes. These tubes were then incubated at 37° C. with shaking and at each timepoint, the corresponding tubes containing samples were quenched with 180 μL of cold acetonitrile containing the internal standards. The quenched samples were vortex-mixed briefly and stored refrigerated. After the final time point (360 minutes), the plates with all quenched samples were vortex-mixed for 10 minutes and then centrifuged at 3100 rpm for 10 minutes at 4° C. to sediment the precipitated protein. The supernatant (50 μL) was transferred to a clean 96-well plate and diluted with 100 μL of water. The plates were stored refrigerated until analysis.
(§3) Data Analysis: Peak area ratios for IS-normalized test article and control article counts were used to calculate the percent remaining relative to the time zero (T0) value. As appropriate, results were plotted and further analyzed to calculate half-life (T1/2) values.
(§4) Mean peak area ratios were used to calculate the % remaining relative to the T0 value:
(§5) In this study, human, cynomolgus monkey, beagle dog, wistar hannover rat, and balb/c plasma stability was determined. Table 28 describes the results of the human plasma stability at 2 μM concentration and anti-coagulant K2-EDTA from 10 to 120 min. Table 29 describes the results of the cynomolgus monkey plasma stability at 2 μM concentration and anti-coagulant K2-EDTA. Table 30 describes the results of the beagle dog plasma stability at 2 μM concentration and anti-coagulant K2-EDTA. Table 31 describes the results of the wistar hannover rat plasma stability at 2 μM concentration and anti-coagulant K2-EDTA. Table 32 describes the results of the balb/c plasma stability at 2 μM concentration and anti-coagulant K2-EDTA.

balb/c mouse hepatocytes = test: Hepatocyte stability, balb/c mouse; type: in vitro ADME; details: 2 μM, 0.5 million cells/ml
Method: (§6) In this study, human, cynomolgus monkey, beagle dog, wistar hannover rat, and balb/c mouse hepatocyle stability was determined.

beagle dog hepatocytes = test: Hepatocyte stability, beagle dog; type: in vitro ADME; details: 2 μM, 0.5 million cells/ml
Method: as §6

[2] = tested on: cynomolgus monkey hepatocytes; test: Hepatocyte stability, cynomolgus monkey; type: in vitro ADME; details: 2 μM, 0.5 million cells/ml
Method: as §6

CYP2C9 = CYP2C9 (Homo sapiens, UniProt P11712); test: CYP450 panel inhibition in human liver microsomes, 2C9 (diclofenac); details: 10 μM; for CYP-2C9 (Diclofenac) mean percentage CYP inhibition: human liver microsomes, substrate diclofenac
Source text: The quenched samples were stored refrigerated.

[3] = Plasma stability, rat plasma (Wistar Han / wistar hannover; Table 5 head SD Rat); type: in vitro ADME; details: wistar hannover rat plasma, 2 μM, anti-coagulant K2-EDTA; for % Remaining at T120: 120 min
Method: as §1, §2, §3, §4, §5

human hepatocytes = test: Hepatocyte stability, human; type: in vitro ADME; details: 2 μM, 0.5 million cells/ml; for % Remaining At T120 / T1/2: 120 min
Method: as §6

[4] = tested on: wistar hannover rat hepatocytes; test: Hepatocyte stability, wistar hannover rat; type: in vitro ADME; details: 2 μM, 0.5 million cells/ml
Method: as §6

[5] = Plasma stability, human plasma (K2EDTA); type: in vitro ADME; details: 2 μM; for % Remaining at T120: 120 min
Method: as §1, §2, §3, §4, §5

[6] = Plasma stability, beagle dog plasma (K2EDTA); type: in vitro ADME; details: 2 μM; for % Remaining at T120: 120 min
Method: as §1, §2, §3, §4, §5

Caco-2 cells = test: Caco-2 bidirectional permeability (absorption & efflux); details: Example 47
[7] = human plasma, anti-coagulant K2-EDTA, 10 to 120 min
[8] = human plasma, anti-coagulant K2-EDTA
[9] = beagle dog plasma, anti-coagulant K2-EDTA

CYP2C9, sequence (P11712 whole entry): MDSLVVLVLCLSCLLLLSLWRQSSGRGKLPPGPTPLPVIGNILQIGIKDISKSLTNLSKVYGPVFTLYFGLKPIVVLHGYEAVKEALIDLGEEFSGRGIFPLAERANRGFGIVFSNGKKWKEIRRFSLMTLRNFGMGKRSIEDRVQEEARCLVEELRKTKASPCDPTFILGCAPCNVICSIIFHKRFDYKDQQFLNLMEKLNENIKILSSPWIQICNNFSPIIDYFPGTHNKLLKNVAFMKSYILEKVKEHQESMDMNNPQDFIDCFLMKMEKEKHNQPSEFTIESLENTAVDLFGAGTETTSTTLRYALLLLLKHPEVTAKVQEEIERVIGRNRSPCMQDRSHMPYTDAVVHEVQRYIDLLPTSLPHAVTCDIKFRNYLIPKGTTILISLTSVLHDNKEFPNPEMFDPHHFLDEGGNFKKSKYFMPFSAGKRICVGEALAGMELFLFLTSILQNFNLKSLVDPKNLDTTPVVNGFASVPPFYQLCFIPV

Structure (SMILES) | T1/2 [1] [h] | % Remaining at T120 [1] [%] | % Remaining At T120 (balb/c mouse hepatocytes) [%] | CLint (L/hr/kg) (balb/c mouse hepatocytes) [L/h/kg] | CLint (mL/min/kg) (balb/c mouse hepatocytes) | T1/2 (balb/c mouse hepatocytes) [h] | % Remaining At T120 (beagle dog hepatocytes) [%] | CLint (L/hr/kg) (beagle dog hepatocytes) [L/h/kg] | CLint (mL/min/kg) (beagle dog hepatocytes) | T1/2 (beagle dog hepatocytes) [h] | % Remaining At T120 [2] [%] | CLint (L/hr/kg) [2] [L/h/kg] | CLint (mL/min/kg) [2] [mL/min/kg] | T1/2 [2] [h] | % Remaining at T120 [3] [%] | % Remaining At T120 (human hepatocytes) [%] | % Remaining At T120 [4] [%] | % Remaining at T120 [5, 8] [%] | % Remaining at T120 [6, 9] [%] | A − B Permeability Ranking (Caco-2 cells) | also measured
CNS(=O)(=O)Nc1cccc(Cc2c(CN(C)C)c3ccc(OC(=O)N(C)C)cc3oc2=O)c1F [Compound 9] | 8.78 | 86.0 | 73.8 | 3.58 | 59.7 | 4.57 | 66.2 | 2.22 | 36.9 | 3.37 | 44.3 | 3.30 | 54.9 | 1.7 | 93.4 | 48.9 | 34.9 | 99.8 | 100.5 | Higher | CYP-2C9 (Diclofenac) mean percentage CYP inhibition (CYP2C9): 13.4%; T1/2 [3]: 19.67 h; CLint (L/hr/kg) (human hepatocytes): 1.93 L/h/kg; CLint (mL/min/kg) (human hepatocytes): 32.2 mL/min/kg; T1/2 (human hepatocytes): 1.93 h; CLint (L/hr/kg) [4]: 2.84 L/h/kg; CLint (mL/min/kg) [4]: 47.3 mL/min/kg; T1/2 [4]: 1.32 h; T1/2 [5, 7]: >2 h; T1/2 [6, 9]: >2 h; Mean Efflux Ratio (Caco-2 cells): 1.32; Mean Papp A − B (10^−6 cm/s) (Caco-2 cells): 16.4 10^−6 cm/s; Mean Papp B − A (10^−6 cm/s) (Caco-2 cells): 21.7 10^−6 cm/s
CNS(=O)(=O)Nc1cccc(Cc2c(CN(C)C)c3cc(F)c(OC(=O)N(C)C)cc3oc2=O)c1F [Compound 25] | >2 | 99.9 | 72.0 | 3.88 | 64.7 | 4.22 | 62.7 | 2.51 | 41.9 | 2.97 | 80.4 | 0.886 | 14.8 | 6.33 | 95.5 | 99.9 | 60.0 | 112.1 | 90.1 | Higher | CYP-2C9 (Diclofenac) mean percentage CYP inhibition (CYP2C9): 28.0%; T1/2 [3]: 55.43 h; CLint (L/hr/kg) (human hepatocytes): 0.00218 L/h/kg; CLint (mL/min/kg) (human hepatocytes): 0.0363 mL/min/kg; CLint (L/hr/kg) [4]: 1.38 L/h/kg; CLint (mL/min/kg) [4]: 23.0 mL/min/kg; T1/2 [4]: 2.72 h; T1/2 [5, 7]: >2 h; T1/2 [6, 9]: 9.88 h; Mean Efflux Ratio (Caco-2 cells): 3.82; Mean Papp A − B (10^−6 cm/s) (Caco-2 cells): 4.39 10^−6 cm/s; Mean Papp B − A (10^−6 cm/s) (Caco-2 cells): 16.7 10^−6 cm/s
CCS(=O)(=O)Nc1cccc(Cc2c(CN(C)C)c3ccc(OC(=O)N(C)C)cc3oc2=O)c1F [Compound 120] | 238.68 | 94.2 | 71.4 | 3.98 | 66.3 | 4.12 | 49.5 | 3.78 | 63.0 | 1.97 | 31.6 | 4.67 | 77.8 | 1.2 | 96.8 | 47.4 | 32.0 | 123.8 | 100.9 | Higher | CYP-2C9 (Diclofenac) mean percentage CYP inhibition (CYP2C9): 11.1%; T1/2 [3]: 42.68 h; CLint (L/hr/kg) (human hepatocytes): 2.02 L/h/kg; CLint (mL/min/kg) (human hepatocytes): 33.6 mL/min/kg; T1/2 (human hepatocytes): 1.85 h; CLint (L/hr/kg) [4]: 3.07 L/h/kg; CLint (mL/min/kg) [4]: 51.2 mL/min/kg; T1/2 [4]: 1.22 h; T1/2 [5, 7]: >2 h; T1/2 [6, 9]: >2 h; Mean Efflux Ratio (Caco-2 cells): 0.567; Mean Papp A − B (10^−6 cm/s) (Caco-2 cells): 21.9 10^−6 cm/s; Mean Papp B − A (10^−6 cm/s) (Caco-2 cells): 12.4 10^−6 cm/s
CNS(=O)(=O)Nc1nccc(Cc2c(CN(C)C)c3ccc(OC(=O)N(C)C)cc3oc2=O)c1F [Compound 124] | >2 | 105.4 | 55.1 | 7.04 | 117 | 2.33 | 34.4 | 5.73 | 95.6 | 1.3 | 49.2 | 2.87 | 47.9 | 1.95 | 100.3 | 70.3 | 32.2 | 85.0 | 101.5 | Higher | CYP-2C9 (Diclofenac) mean percentage CYP inhibition (CYP2C9): 65.5%; T1/2 [3]: >2 h; CLint (L/hr/kg) (human hepatocytes): 0.953 L/h/kg; CLint (mL/min/kg) (human hepatocytes): 15.9 mL/min/kg; T1/2 (human hepatocytes): 3.93 h; CLint (L/hr/kg) [4]: 3.06 L/h/kg; CLint (mL/min/kg) [4]: 51.0 mL/min/kg; T1/2 [4]: 1.22 h; T1/2 [5, 7]: 10.5 h; T1/2 [6, 9]: 94.15 h; Mean Efflux Ratio (Caco-2 cells): 5.12; Mean Papp A − B (10^−6 cm/s) (Caco-2 cells): 3.51 10^−6 cm/s; Mean Papp B − A (10^−6 cm/s) (Caco-2 cells): 18.0 10^−6 cm/s
CCN(C)Cc1c(Cc2cccc(NS(=O)(=O)NC)c2F)c(=O)oc2cc(OC(=O)N(C)C)c(F)cc12 [Compound 238] |  | 57.5 | 57.3 |  |  |  | 31.1 |  |  |  | 23.3 |  |  |  | 95.5 | 27.3 | 23.0 | 95.7 | 93.8 | Higher | half-life at 2 μM ([1]; mouse, pH 7.4, read-out: T1/2): 2.67 h; half-life at 2 μM ([3]; pH 7.4, read-out: T1/2): 29.8 h; half-life at 2 μM ([5]; pH 7.4, human plasma, anti-coagulant K2-EDTA, 10 to 120 min, read-out: T1/2): 68.6 h; half-life at 2 μM ([6]; pH 7.4, beagle dog plasma, anti-coagulant K2-EDTA, read-out: T1/2): 23.2 h
Cn1cnc2c(F)c(Nc3ccc(Br)cc3Cl)c(C(=O)NOCCO)cc21 [Reference-1, Selumetinib] |  |  |  |  |  |  |  |  |  |  |  |  |  |  |  |  |  |  |  |  | CYP2C9 inhibition (CYP2C9; human, 30 min, pH 7.4): 14.1%; Human (% Reamining @2 hour) ([5]; human, 2 h, pH 7.4): 98.1%; Beagle Dog (% Reamining @2 hour) ([6]; beagle, dog, 2 h, pH 7.4): 100.4%
CNS(=O)(=O)Nc1nccc(Cc2c(C)c3ccc(Oc4ncccn4)cc3oc2=O)c1F [Reference-2, reference compound] |  |  |  |  |  |  |  |  |  |  |  |  |  |  |  |  |  |  |  |  | Human (% Reamining @2 hour) ([5]; plasma, 2 hour): 91.1%; Beagle Dog (% Reamining @2 hour) ([6]; plasma, 2 hour): 99.8%
